Laboratory results published in PubChem BioAssay AID276 (DTP/NCI, 2004).
Several values for one entry are separate records, joined by “and”; a condition that tells them apart may be missing. Equal entries are not always repeated. Inconclusive results and toxic doses are left out. The calls were made as follows: active = survival T/C of 150% or more; inactive = T/C below 125% in these data. Positions of bridges follow the written chain, without caps; N, C: chain ends. Residues, ends and D or L forms follow the SMILES beside them.

Tested on: B6C3F1 mice, Lewis lung carcinoma iv, survival T/C
Assay: NCI In Vivo Anticancer Drug Screen. Data for tumor model Lewis Lung Carcinoma (intravenous) in B6C3F1 mice
Settings: endpoint: median survival time, schedule: Q01DX009 (ip), higher = longer survival
Method in brief: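 T/C ratio derived from survival of compound-treated versus vehicle-treated mice bearing transplantable tumors.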

[1] = dose: 12.5 mg/kg/injection, vehicle: Klucel (hydroxypropylcellulose) (HPC)
[2] = dose: 25.0 mg/kg/injection, vehicle: Klucel (hydroxypropylcellulose) (HPC)
[3] = dose: 50.0 mg/kg/injection, vehicle: Klucel (hydroxypropylcellulose) (HPC)
[4] = dose: 100.0 mg/kg/injection, vehicle: Klucel (hydroxypropylcellulose) (HPC)
[5] = dose: 12.5 mg/kg/injection, vehicle: suspension in saline
[6] = dose: 25.0 mg/kg/injection, vehicle: suspension in saline
[7] = dose: 3.12 mg/kg/injection, vehicle: suspension in saline
[8] = dose: 6.25 mg/kg/injection, vehicle: suspension in saline
[9] = dose: 25.0 mg/kg/injection, vehicle: saline with Tween-80
[10] = dose: 50.0 mg/kg/injection, vehicle: saline with Tween-80
[11] = dose: 100.0 mg/kg/injection, vehicle: saline with Tween-80
[12] = dose: 200.0 mg/kg/injection, vehicle: saline with Tween-80
[13] = dose: 400.0 mg/kg/injection, vehicle: saline with Tween-80
[14] = dose: 6.25 mg/kg/injection, vehicle: water
[15] = dose: 12.5 mg/kg/injection, vehicle: water
[16] = dose: 25.0 mg/kg/injection, vehicle: water

Measured: T/C

CCC(C)C1NC(=O)C(CC(C)C)NC(=O)C(C(C)C)NC(=O)C2CSSCC(NC1=O)C(=O)N2 (configuration not stated) (cyclo(CCVLI); disulfide 1-2; configuration not given here)
inactive: dose: 31.25 micrograms/kg/injection, vehicle: Klucel (hydroxypropylcellulose) (HPC) 93 % of control | dose: 62.5 micrograms/kg/injection, vehicle: Klucel (hydroxypropylcellulose) (HPC) 99 % of control | dose: 125.0 micrograms/kg/injection, vehicle: Klucel (hydroxypropylcellulose) (HPC) 93 % of control | dose: 250.0 micrograms/kg/injection, vehicle: Klucel (hydroxypropylcellulose) (HPC) 98 % of control | dose: 500.0 micrograms/kg/injection, vehicle: Klucel (hydroxypropylcellulose) (HPC) 88 % of control | dose: 1000.0 micrograms/kg/injection, vehicle: Klucel (hydroxypropylcellulose) (HPC) 100 % of control

S=c1nc[nH]c2nc[nH]c12
inactive: dose: 15.0 mg/kg/injection, vehicle: Klucel (hydroxypropylcellulose) (HPC) 107 % of control | dose: 30.0 mg/kg/injection, vehicle: Klucel (hydroxypropylcellulose) (HPC) 116 % of control

Cc1cc(Nc2ccc3c(c2)OCO3)c2cc3c(cc2n1)OCO3
inactive: [1] 100 % of control | [2] 98 % of control | [3] 98 % of control and 104 % of control | [4] 101 % of control

C[n+]1c(-c2cccc3ccccc23)c2cc(N)ccc2c2ccccc21
inactive: dose: 3.12 mg/kg/injection, vehicle: saline 94 % of control | dose: 6.25 mg/kg/injection, vehicle: saline 90 % of control

CN(CCN(C)C(=O)CCOS(C)(=O)=O)C(=O)CCOS(C)(=O)=O
inactive: [5] 101 % of control | [6] 97 % of control | dose: 50.0 mg/kg/injection, vehicle: suspension in saline 102 % of control | dose: 100.0 mg/kg/injection, vehicle: suspension in saline 107 % of control

COc1cc2c(c(OC)c1OC)-c1ccc(OC)c(=O)cc1[C@@H](NC(=O)CCl)CC2
inactive: dose: 0.03 mg/kg/injection, vehicle: saline with Tween-80 114 % of control | dose: 0.06 mg/kg/injection, vehicle: saline with Tween-80 102 % of control | dose: 0.12 mg/kg/injection, vehicle: saline with Tween-80 114 % of control | dose: 0.25 mg/kg/injection, vehicle: saline with Tween-80 106 % of control

COc1cc2c(c(OC)c1OC)-c1ccc(OC)c(=O)cc1[C@@H](NC(C)=O)CC2
inactive: dose: 0.06 mg/kg/injection, vehicle: saline 108 % of control | dose: 0.12 mg/kg/injection, vehicle: saline 92 % of control | dose: 0.19 mg/kg/injection, vehicle: saline 99 % of control | dose: 0.25 mg/kg/injection, vehicle: saline 100 % of control | dose: 0.39 mg/kg/injection, vehicle: saline 104 % of control | dose: 0.5 mg/kg/injection, vehicle: saline 93 % of control | dose: 0.78 mg/kg/injection, vehicle: saline 104 % of control | dose: 1.0 mg/kg/injection, vehicle: saline 100 % of control | dose: 2.0 mg/kg/injection, vehicle: saline 112 % of control

Cn1cnc([N+](=O)[O-])c1Sc1nc(N)nc2c1ncn2C1OC(CO)C(O)C1O (configuration not stated)
inactive: dose: 1.56 mg/kg/injection, vehicle: suspension in saline 105 % of control | [7] 100 % of control | [8] 105 % of control

C[Si](C)(C)OSc1ccccc1[N+](=O)[O-]
inactive: [1] 120 % of control | [2] 110 % of control | [3] 102 % of control | [4] 102 % of control | dose: 200.0 mg/kg/injection, vehicle: Klucel (hydroxypropylcellulose) (HPC) 102 % of control | dose: 400.0 mg/kg/injection, vehicle: Klucel (hydroxypropylcellulose) (HPC) 104 % of control

c1cc(-c2cc3ccc(C4=NCCN4)cc3[nH]2)ccc1C1=NCCN1
inactive: [7] 100 % of control | [8] 120 % of control | [5] 115 % of control | [6] 111 % of control

CC(=O)Oc1[nH]c(=O)c2cccc3c2c1CCC3
inactive: [9] 104 % of control | [10] 122 % of control | [11] 102 % of control | [12] 107 % of control | [13] 105 % of control

CC(=O)OC1=NC(C)c2c1cc(OC(C)=O)[nH]c2=O (configuration not stated)
inactive: [1] 102 % of control | [2] 98 % of control | [3] 95 % of control

N=c1ccc2nc3ccc(N)cc3sc-2c1
inactive: [14] 113 % of control | [15] 117 % of control | [16] 93 % of control

COC1CC(C)C(OC)c2cc(O)cc(c2O)NC(=O)/C(C)=C/C=C\C(C)C(OC(N)=O)/C(C)=C\C(C)C1OC (configuration not stated)
inactive: dose: 5.0 mg/kg/injection, vehicle: saline + alcohol 115 % of control | dose: 10.0 mg/kg/injection, vehicle: saline + alcohol 88 % of control

N=c1c(C(=O)OCc2ccccc2)ncc(CCl)n1O
inactive: [9] 96 % of control | [10] 97 % of control | [11] 109 % of control | [12] 92 % of control

CC(=O)ON(C(C)=O)c1ccc(C(N)=O)cc1
inactive: [9] 102 % of control | [10] 93 % of control | [11] 107 % of control | [12] 99 % of control | [13] 106 % of control

Nc1cc(Cl)c2[nH]cnc2n1
inactive: [14] 94 % of control | [15] 98 % of control | [16] 100 % of control | dose: 50.0 mg/kg/injection, vehicle: water 107 % of control | dose: 100.0 mg/kg/injection, vehicle: water 109 % of control | dose: 200.0 mg/kg/injection, vehicle: water 100 % of control

Cc1cc(=NO)cc(C)n1O
inactive: dose: 25.0 mg/kg/injection, vehicle: distilled water + alcohol 105 % of control | dose: 50.0 mg/kg/injection, vehicle: distilled water + alcohol 95 % of control and 102 % of control | dose: 100.0 mg/kg/injection, vehicle: distilled water + alcohol 96 % of control and 102 % of control | dose: 200.0 mg/kg/injection, vehicle: distilled water + alcohol 97 % of control and 104 % of control | dose: 400.0 mg/kg/injection, vehicle: distilled water + alcohol 97 % of control and 102 % of control
